Assay results as given in patent US7465453B2, “Polypeptide fragments of CKLF1” (Peking University, priority 2004, dated 2008).

Tested on: OVA-sensitized murine asthma model
Assay: OVA-sensitized murine asthma model
Assay type: in vivo, C57BL/6 mice
Conditions: for airway hyperreactivity: OVA-sensitized and challenged mice, i.p. pretreatment
Experimental: C57BL/6 mice (20-25 g) of either sex were sensitized by an i.p. injection (100 μl) of 20 μg chicken OVA (Sigma-Aldrich, St. Louis, Mo.) emulsified in Imject alum (2.25 mg Al(OH)3/2 mg Mg(OH)2) (Pierce, Rockfield, Ill.) on days 0 and 14. Mice were injected with 1, 10, or 100 μg of C27 or C19 i.p, and thirty minutes later, these mice were subsequently challenged with an aerosol generated from 1% OVA in saline (OVA), or saline alone, for 20 min by ultrasonic nebulization (DeVilbiss, Somerset, Pa.). This procedure was repeated daily on days 24, 25, and 26. The mice were assessed on day 28.

Row | Substance | airway hyperreactivity | inhibition of the eosinophil infiltration into the BAL fluid (doses ranging from 1 to 100 μg/mouse i.p., vs positive control group) | inhibition of eosinophil recruitment into the airways (BAL fluid analysis) (1 μg/mouse i.p., vs positive control group) | inhibition of eosinophil recruitment into the airways (BAL fluid analysis) (10 μg/mouse i.p., vs positive control group) | inhibition of eosinophil recruitment into the airways (BAL fluid analysis) (100 μg/mouse i.p., vs positive control group)
1 | ALIYRKL LFNPSGPYQKKPVHEKKEVL (ALIYRKLLFNPSGPYQKKPVHEKKEVL; listed as Homo sapiens) [C27] | small, but not statistically significant, increase | did not demonstrate any inhibition |  |  | 
2 | FNPSGPYQKKPVHEKKEVL (listed as Homo sapiens) [C19] | significant decrease |  | 78% | 69% | 74%
